Several values for one entry are separate records, joined by “and”; a condition that tells them apart may be missing. Equal entries are not always repeated.

In PubChem BioAssay AID720587 (Broad Institute, 2013) one finds AC35 data, which are given here for 58 compounds.

The test system of this assay is A673 Ewing sarcoma viability, CellTiter-Glo ATP luminescence, 72 h. In words: A673 Ewing sarcoma viability loss – cell-based, CellTiter-Glo luminescence, cherry-pick retest, confirmation (AID 720587).

As for `COC(=O)C[C@H]1CC[C@H]2[C@@H](COc3ccc(NC(=O)Nc4cccc(Cl)c4)cc3C(=O)N2C)O1`, the AC35 is 14.7 µM. `CC(=O)OC1CC2(O)C3CCC4CC(O)CCC4(C)C3CCC2(C)C1C1=CC(=O)OC1` (stereo not drawn): the AC35 is 0.213 µM. Regarding `CC(C)(C)[S@](=O)N1Cc2cc(C(=O)NCC(F)(F)F)nc(-c3cccc(-c4cccc(F)c4)c3)c2[C@@H]1CCO`, the AC35 is 14.3 µM. To `COc1cc2c(cc1NC(=O)CN(C)Cc1ccc(OC)c(OC)c1)oc1ccccc12` belongs 21.5 µM; to `COC(=O)C[C@@H]1CC[C@@H]2[C@@H](COc3ccc(NC(=O)Nc4cccc(Cl)c4)cc3C(=O)N2C)O1`, 10.3 µM. To `C[C@H]1CN([C@@H](C)CO)C(=O)c2cccc(NC(=O)c3ccc(-c4nccs4)cc3)c2O[C@@H]1CN(C)Cc1ccc(C(=O)Nc2ccccc2N)cc1` belongs 18.1 µM; to `CCn1c(/C=N/NC(=O)c2ccc(OC)cc2)nc2ccccc21`, 5.62 µM. For the compound `N#CC(=C1C=CC(=NO)C(Cl)=C1)c1ccccc1`, the AC35 is 5.59 µM. As for `O=C(Nc1ccccc1F)N1CCCCN2[C@H](CO)[C@H](c3ccc(/C=C/c4ccccc4)cc3)[C@H]2C1`, the AC35 was 3.64 µM. `CCOc1cc(/C=N/Nc2cc(C)nc(-n3nc(C)cc3C)n2)ccc1O`: the AC35 was 1.77 µM. Then `COC(=O)c1ccccc1-c1c2ccc(=N)cc-2oc2cc(N)ccc12`, with 3.64 µM.

As to `Nc1ccc(Cn2ccc3c4c(N)nc(N)nc4ccc32)cc1`, the AC35 was 0.0589 µM.

With `COc1ccc(S(=O)(=O)N2CC[C@@H]3[C@H](CO)Nc4ccc(-c5ccc(C#N)cc5)cc4[C@@H]32)cc1`, the AC35 is 4.23 µM. Then `C[C@]12CC[C@H]3[C@@H](CC[C@]4(O)C[C@@H](O)CC[C@]34C=O)[C@@]1(O)CC[C@@H]2C1=CC(=O)OC1`, with 0.641 µM; and `C[C@@H]1CN([C@@H](C)CO)C(=O)c2cccc(NS(=O)(=O)c3ccccc3)c2O[C@@H]1CN(C)Cc1ccc(C(=O)Nc2ccccc2N)cc1`, with 8.86 µM; and `C[C@H]1CN([C@@H](C)CO)C(=O)c2cc(NS(=O)(=O)c3ccc(Cl)cc3)ccc2O[C@H]1CN(C)Cc1ccc(C(=O)Nc2ccccc2N)cc1`, with 13.1 µM.

For the compound `CCCN1C(=O)/C(=C/c2nc3ccccc3c(=O)[nH]2)c2ccccc21`, the AC35 is 22 µM.

As for `O=c1c(Cl)cc(Cl)nn1-c1ccccc1`, the AC35 is 5.55 µM.

For the compound `COC(=O)C1=C(C)N(Cc2cccc(C(F)(F)F)c2)C(=NCc2ccc(OC)cc2)NC1c1cccc(F)c1` (stereo not drawn), the AC35 was 4.46 µM.

For `CC(=NNc1cc(C)c2ccccc2n1)c1ccccn1`, the AC35 was 0.417 µM. Then `COC(=O)C[C@@H]1CC[C@@H]2[C@@H](COc3ccc(NC(=O)Nc4ccccc4C)cc3C(=O)N2C)O1`, with 19.7 µM; and `O=C(O)c1ccc(N/N=C/c2ccc3c(c2)OCO3)cc1`, with 16.5 µM. For the compound `Cc1cccc(N2CCN(C3C(=O)Nc4ccccc4-n4nnnc43)CC2)c1C` (stereo not drawn), the AC35 was 13.1 µM. To `CO[C@H]1CN(C)C(=O)c2ccc(NC(=O)c3ccc(-c4ccccc4)cc3)cc2OC[C@H](C)NC[C@H]1C` belongs 10.5 µM; to `C(=N\Nc1nc2ccccc2s1)/c1ccccn1`, 0.696 µM; to `COc1cc(/C=C/C(=O)CC(=O)/C=C/c2ccc(O)c(OC)c2)ccc1O`, 2.54 µM. Regarding `CCC1=Nc2cc(C(=O)NCC3CCCO3)ccc2Sc2ccc(Br)cc21` (stereo not drawn), the AC35 was 4.39 µM. Consider `C[C@@H]1CN([C@@H](C)CO)S(=O)(=O)c2ccc(C#CC(C)(C)O)cc2O[C@H]1CN(C)Cc1ccc(-c2ccccc2)cc1`, for which the AC35 was 5.75 µM. To `Cc1ccc(S(=O)(=O)Nc2ccc3c(c2)C(=O)N([C@H](C)CO)C[C@@H](C)[C@@H](CN(C)Cc2ccc(C(=O)Nc4ccccc4N)cc2)O3)cc1` belongs 11.9 µM; to `CC(=NNc1ccc2ccccc2n1)c1ccccn1`, 0.234 µM; to `C[C@@H]1CN([C@H](C)CO)S(=O)(=O)c2ccc(C#CC(C)(C)O)cc2O[C@H]1CN(C)Cc1ccc(-c2ccccc2)cc1`, 7.19 µM. For the compound `Cc1nc(N)nc(N)c1/C=C/C(C)(C)c1ccc(Cl)cc1`, the AC35 was < 0.011 µM. With `OCC1OC(n2cnc3c(NCc4ccco4)ncnc32)C(O)C1O` (stereo not drawn), the AC35 is 4.04 µM. Consider `O=C(NC(c1ccc(F)cc1)c1ccc2ccccc2n1)C1CCN(Cc2cccc(C(F)(F)F)c2)CC1` (stereo not drawn), for which the AC35 is 14.6 µM.

For the compound `C[C@H](CO)N1C[C@H](C)[C@H](CN(C)Cc2ccc(C(=O)Nc3ccccc3N)cc2)Oc2ccc(NC(=O)C3CC3)cc2CC1=O`, the AC35 was 7.86 µM. `COc1ccc(Cn2cc3c(-c4ccc(F)cc4)nnc-3c3cc(OC)c(OC)cc32)cc1`: the AC35 is 4.86 µM.

On to `C[C@H]1CN([C@@H](C)CO)C(=O)Cc2cc(NC(=O)CCC(F)(F)F)ccc2O[C@H]1CN(C)Cc1ccc(C(=O)Nc2ccccc2N)cc1`, for which the AC35 is 8.75 µM. As for `C[C@@H]1O[C@@H](O[C@@H]2C=C3CC[C@@H]4C(CC[C@]5(C)[C@@H](c6ccc(=O)oc6)CC[C@]45O)[C@@]3(C)CC2)[C@H](O)[C@H](O)[C@H]1O` (stereo partly drawn), the AC35 is 0.0233 µM. Take `CCCCNC1=CC(=O)C(=O)c2ccccc21`: the AC35 was 2.77 µM.

Consider `COc1ccc(C2=Nn3c([n+](C)c4ccccc43)SC2)cc1`, for which the AC35 was 20.2 µM. Then `C(=Cc1nc2ccccc2o1)c1ccc2c(c1)OCO2`, with 19 µM; and `C[C@@H]1CN([C@@H](C)CO)C(=O)Cc2cc(N(C)C)ccc2O[C@H]1CN(C)Cc1ccc(C(=O)Nc2ccccc2N)cc1`, with 8.7 µM. Then `Cc1cc(C(=O)Nc2ccc3c(c2)C(=O)N(C)[C@@H]2CC[C@H](CC(=O)N[C@H](C)c4ccccc4)O[C@H]2CO3)no1`, with 12.9 µM; and `CN(C)c1ccc(/C=N/Nc2nc3ccccc3o2)cc1`, with 20.9 µM; and `CC(=O)OC1CC(OC2C(O)CC(OC3C(O)CC(OC4CCC5(C)C(CCC6C5CCC5(C)C(C7=CC(=O)OC7)CCC65O)C4)OC3C)OC2C)OC(C)C1OC1OC(CO)C(O)C(O)C1O` (stereo not drawn), with 0.105 µM. In the case of `OC[C@H]1[C@@H](c2ccc(C#CC3CCCC3)cc2)[C@@H]2CN(CCC(F)(F)F)CCCCN12`, the AC35 is 7.53 µM. To `COC(=O)C[C@@H]1CC[C@@H]2[C@H](COc3ccc(NC(=O)c4ccc(F)c(F)c4)cc3C(=O)N2C)O1` belongs 19.7 µM; to `N#CC1C=Cc2c(ccc3ccccc23)N1C(=O)c1ccccc1` (stereo not drawn), 9.42 µM. To `CCNC(=O)c1cc2c(c(-c3cccc(-c4cccc(OC)c4)c3)n1)[C@H](CCO)N([S@@](=O)C(C)(C)C)C2` belongs 5.13 µM; to `O=C(/C=C/c1cc(Br)ccc1O)c1ccco1`, 12.3 µM; to `CN(C)C(=S)N=Nc1[nH]c2ccccc2c1O`, 11.1 µM. Then `COc1cccc(-c2cc(NC=O)c3ncc(-c4ccc(C(C)=O)cc4)n3c2)c1`, with 4.09 µM; and `C=C1C(=O)OC2C1CCC(C)C1C=CC(=O)C12C` (stereo not drawn), with 7.41 µM.

For `O=C(N/N=C/c1cnc(N2CCCCC2)s1)c1ccc(C(F)(F)F)cc1`, the AC35 was 13.8 µM. As to `C=CCOc1ccccc1C(=O)/C=C1/C(=O)Nc2ccccc21`, the AC35 is 9.62 µM. With `CN(Cc1cnc2nc(N)nc(N)c2n1)c1ccc(C(=O)N[C@@H](CCC(=O)O)C(=O)O)cc1`, the AC35 is 0.0191 µM and 0.018 µM.

Regarding `COc1cc(/C=N\Nc2nc(-c3ccc(C)cc3)c(NC(C)=O)s2)ccc1O`, the AC35 is 14.4 µM.

As to `C[C@@H]1CN([C@H](C)CO)S(=O)(=O)c2ccc(C#Cc3ccncc3)cc2O[C@@H]1CN(C)C(=O)Nc1ccc2c(c1)OCO2`, the AC35 was 19.4 µM.
